From ChEMBL document CHEMBL1127903, “Heteroaromatic Taxol Analogues: The Chemistry and Biological Activities of 3-Furyl and 3-Pyridyl Substituted Taxanes” (1994)

Key:
B16 [1] = experiment: Tested for cytotoxic effect against B16 melanoma cells relative to taxol as1; format: functional, Mus musculus
[2] = biological target: Tubulin alpha chain (Sus scrofa) (UniProt P02550); experiment: Tested for the effect on polymerization of the tubulin present by microtubule assembly assay relative to taxol as1; format: functional
Chain of Tubulin alpha chain (Sus scrofa) (P02550 whole entry, looked up): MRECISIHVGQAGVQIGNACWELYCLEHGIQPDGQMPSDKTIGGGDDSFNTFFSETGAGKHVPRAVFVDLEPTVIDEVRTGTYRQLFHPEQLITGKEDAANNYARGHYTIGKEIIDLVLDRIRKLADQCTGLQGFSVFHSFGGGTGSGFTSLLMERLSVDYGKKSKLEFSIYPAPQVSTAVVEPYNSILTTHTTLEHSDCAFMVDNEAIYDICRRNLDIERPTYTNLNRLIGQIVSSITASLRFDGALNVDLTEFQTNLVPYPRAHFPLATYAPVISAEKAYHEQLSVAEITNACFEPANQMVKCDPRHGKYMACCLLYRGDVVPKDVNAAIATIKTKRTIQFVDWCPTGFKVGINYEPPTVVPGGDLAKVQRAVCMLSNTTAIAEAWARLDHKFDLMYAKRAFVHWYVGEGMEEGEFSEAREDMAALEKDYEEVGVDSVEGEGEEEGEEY

B16 [3] = experiment: Tested for cytotoxic effect against B16 melanoma cells; format: functional, Mus musculus
[4] = biological target: Tubulin alpha chain (Sus scrofa) (UniProt P02550); experiment: Tested for the effect on polymerization of the tubulin present by microtubule assembly assay; format: functional

| Structure (SMILES) | ED50 ratio (B16 [1]) | ED50 ratio [2] | ED50 ratio (B16 [3]) | ED50 ratio [4] |
| --- | --- | --- | --- | --- |
| CC(=O)O[C@H]1C(=O)[C@@]2(C)[C@H]([C@H](OC(=O)c3ccccc3)[C@]3(O)C[C@H](OC(=O)[C@H](O)[C@@H](NC(=O)c4ccccc4)c4ccoc4)C(C)=C1C3(C)C)[C@]1(OC(C)=O)CO[C@@H]1C[C@@H]2O | 3.3 | 0.9 |  |  |
| CC(=O)O[C@H]1C(=O)[C@@]2(C)[C@H]([C@H](OC(=O)c3ccccc3)[C@]3(O)C[C@H](OC(=O)[C@H](O)[C@@H](NC(=O)c4ccccc4)c4ccccc4)C(C)=C1C3(C)C)[C@]1(OC(C)=O)CO[C@@H]1C[C@@H]2O [PACLITAXEL] |  |  | 1 | 1 |
| CC(=O)O[C@H]1C(=O)[C@@]2(C)[C@H]([C@H](OC(=O)c3ccccc3)[C@]3(O)C[C@H](OC(=O)[C@H](O)[C@@H](NC(=O)c4ccccc4)c4cccnc4)C(C)=C1C3(C)C)[C@]1(OC(C)=O)CO[C@@H]1C[C@@H]2O | 27 | 0.5 |  |  |
| CC(=O)O[C@H]1C(=O)[C@@]2(C)[C@H]([C@H](OC(=O)c3ccccc3)[C@]3(O)C[C@H](OC(=O)[C@H](O)[C@@H](NC(=O)c4ccccc4)c4ccco4)C(C)=C1C3(C)C)[C@]1(OC(C)=O)CO[C@@H]1C[C@@H]2O | 0.3 | 0.9 |  |  |
| CC(=O)O[C@H]1C(=O)[C@@]2(C)[C@H]([C@H](OC(=O)c3ccccc3)[C@]3(O)C[C@H](OC(=O)[C@H](O)[C@@H](NC(=O)c4ccccc4)c4ccncc4)C(C)=C1C3(C)C)[C@]1(OC(C)=O)CO[C@@H]1C[C@@H]2O | 1.3 | 0.4 |  |  |
| CC(=O)O[C@H]1C(=O)[C@@]2(C)[C@H]([C@H](OC(=O)c3ccccc3)[C@]3(O)C[C@H](OC(=O)[C@H](O)[C@@H](NC(=O)c4ccccc4)c4ccccn4)C(C)=C1C3(C)C)[C@]1(OC(C)=O)CO[C@@H]1C[C@@H]2O | 0.8 | 0.7 |  |  |
